Here are results for 19 molecules from patent US7507730B2, “Substituted pyrazolo[1,5-a]pyrimidines as potassium channel activators” (Bristol-Myers Squibb Company, priority 2005, dated 2009).

Structures are written as SMILES.

Kv1.5, sequence (P22460 whole entry): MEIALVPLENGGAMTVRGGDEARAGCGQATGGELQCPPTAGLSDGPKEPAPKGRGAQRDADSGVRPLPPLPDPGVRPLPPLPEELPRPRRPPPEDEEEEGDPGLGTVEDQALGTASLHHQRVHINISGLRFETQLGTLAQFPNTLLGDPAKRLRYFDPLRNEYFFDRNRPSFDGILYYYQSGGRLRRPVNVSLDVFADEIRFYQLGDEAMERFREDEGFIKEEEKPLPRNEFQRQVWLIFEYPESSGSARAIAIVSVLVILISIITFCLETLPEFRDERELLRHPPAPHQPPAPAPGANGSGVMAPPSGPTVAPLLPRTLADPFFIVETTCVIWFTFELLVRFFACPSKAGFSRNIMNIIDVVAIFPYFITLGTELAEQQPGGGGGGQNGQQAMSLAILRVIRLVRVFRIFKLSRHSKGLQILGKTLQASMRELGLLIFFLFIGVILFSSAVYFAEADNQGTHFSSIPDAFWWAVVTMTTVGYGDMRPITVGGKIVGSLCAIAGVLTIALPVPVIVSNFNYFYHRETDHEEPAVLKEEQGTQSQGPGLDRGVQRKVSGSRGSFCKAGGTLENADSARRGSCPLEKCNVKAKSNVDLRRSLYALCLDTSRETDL

One assay deals with Kv1.5 (Homo sapiens, UniProt P22460). The assay is described as follows: Kv1.5 inhibition assay (IKur inhibitor assay per cited references). The class given is cell-based. Conditions: at 0.3 μM. The source says:
Assays to determine the degree of activity of a compound as an IKur inhibitor are well known in the art and are described in references such as J. Gen. Physiol. Apr.; 101 (4):513-43, and Br. J. Pharmacol. 1995 May; 115(2):267-74.
Molecule `COc1ccccc1S(=O)(=O)C1=C(C)Nc2cc(C(F)(F)F)nn2C1c1ccc(Cl)cc1` (single isomer, unassigned) [Example 46 Isomer 2, 7-(4-Chlorophenyl)-6-(2-methoxyphenylsulfonyl)-5-methyl-2-(trifluoromethyl)-4,7-dihydropyrazolo[1,5-a]pyrimidine] yielded a Kv1.5% inhibition of 74.7%.
Molecule `CC1=C(S(=O)(=O)c2ccccn2)C(c2ccc(Cl)cc2)n2nc(C(F)(F)F)cc2N1` (single isomer, unassigned) [Example 47 Isomer 2, 7-(4-Chlorophenyl)-5-methyl-6-(pyridin-2-ylsulfonyl)-2-(trifluoromethyl)-4,7-dihydropyrazolo[1,5-a]pyrimidine] gave an inhibition at 0.3 µM of 75.8%.
In turn, `COc1ccc(S(=O)(=O)C2=C(CO)Nc3cc(C(F)(F)F)nn3C2c2ccc(Cl)cc2)cc1` (single isomer, unassigned) [Example 49 Isomer 1, (7-(4-Chlorophenyl)-6-(4-methoxyphenylsulfonyl)-2-(trifluoromethyl)-4,7-dihydropyrazolo[1,5-a]pyrimidin-5-yl)methanol] returned a Kv1.5% inhibition of 19.6%.
Still for that read-out and setting: next, `COc1ccc(S(=O)(=O)C2=C(CO)Nc3cc(C(F)(F)F)nn3C2c2ccc(Cl)cc2)cc1` (single isomer, unassigned) [Example 49 Isomer 2, (7-(4-Chlorophenyl)-6-(4-methoxyphenylsulfonyl)-2-(trifluoromethyl)-4,7-dihydropyrazolo[1,5-a]pyrimidin-5-yl)methanol]: 71.2%.
`CC1=C(S(=O)(=O)c2ccc(Cl)cc2)C(c2cncnc2)n2nc(C(F)(F)F)cc2N1` (single isomer, unassigned) [Example 50 Isomer 1, 6-(4-Chlorophenylsulfonyl)-5-methyl-7-(pyrimidin-5-yl)-2-(trifluoromethyl)-4,7-dihydropyrazolo[1,5-a]pyrimidine] registered an inhibition at 0.3 µM of 15.1%.
`CC1=C(S(=O)(=O)c2ccc(Cl)cc2)C(c2cncnc2)n2nc(C(F)(F)F)cc2N1` (single isomer, unassigned) [Example 50 Isomer 2, 6-(4-Chlorophenylsulfonyl)-5-methyl-7-(pyrimidin-5-yl)-2-(trifluoromethyl)-4,7-dihydropyrazolo[1,5-a]pyrimidine]: the Kv1.5% inhibition came to 14.7%.
As for `COc1ccc(S(=O)(=O)C2=C(C)Nc3cc(C(F)(F)F)nn3C2c2ccc(Cl)cc2)cc1OC` (single isomer, unassigned) [Example 51 Isomer 1, 7-(4-Chlorophenyl)-6-(3,4-dimethoxyphenylsulfonyl)-5-methyl-2-(trifluoromethyl)-4,7-dihydropyrazolo[1,5-a]pyrimidine], the inhibition at 0.3 µM was found to be 69.2%.
With `COc1ccc(S(=O)(=O)C2=C(C)Nc3cc(C(F)(F)F)nn3C2c2ccc(Cl)cc2)cc1OC` (single isomer, unassigned) [Example 51 Isomer 2, 7-(4-Chlorophenyl)-6-(3,4-dimethoxyphenylsulfonyl)-5-methyl-2-(trifluoromethyl)-4,7-dihydropyrazolo[1,5-a]pyrimidine], the Kv1.5% inhibition worked out at 79.2%.
Same read-out and setting: next, `CC1=C(S(=O)(=O)N2CCCC2)C(c2ccc(Cl)c(Cl)c2)n2nc(C)cc2N1` (single isomer, unassigned) [Example 53 Isomer 1, 7-(3,4-Dichlorophenyl)-2,5-dimethyl-6-(pyrrolidin-1-ylsulfonyl)-4,7-dihydropyrazolo[1,5-a]pyrimidine]: 95.7%.
In turn, `CC1=C(S(=O)(=O)N2CCCC2)C(c2ccc(Cl)c(Cl)c2)n2nc(C)cc2N1` (single isomer, unassigned) [Example 53 Isomer 2, 7-(3,4-Dichlorophenyl)-2,5-dimethyl-6-(pyrrolidin-1-ylsulfonyl)-4,7-dihydropyrazolo[1,5-a]pyrimidine] returned a Kv1.5% inhibition of 54.7%.
Molecule `CC1=C(S(=O)(=O)NCc2ccccc2)C(c2ccc(Cl)cc2)n2nc(C)cc2N1` (single isomer, unassigned) [Example 55 Isomer 1, N-Benzyl-7-(4-chlorophenyl)-2,5-dimethyl-4,7-dihydropyrazolo[1,5-a]pyrimidine-6-sulfonamide] showed an inhibition at 0.3 µM of 22.9%.
In turn, `CC1=C(S(=O)(=O)NCc2ccccc2)C(c2ccc(Cl)cc2)n2nc(C)cc2N1` (single isomer, unassigned) [Example 55 Isomer 2, N-Benzyl-7-(4-chlorophenyl)-2,5-dimethyl-4,7-dihydropyrazolo[1,5-a]pyrimidine-6-sulfonamide] displayed a Kv1.5% inhibition of 17.2%.
As for `CC1=C(S(=O)(=O)NCc2ccccc2)C(c2ccc(Cl)c(Cl)c2)n2nc(C(F)(F)F)cc2N1` (single isomer, unassigned) [Example 56 Isomer 1, N-Benzyl-7-(3,4-dichlorophenyl)-5-methyl-2-(trifluoromethyl)-4,7-dihydropyrazolo[1,5-a]pyrimidine-6-sulfonamide], the inhibition at 0.3 µM amounted to 50%.
In the case of `CC1=C(S(=O)(=O)NCc2ccccc2)C(c2ccc(Cl)c(Cl)c2)n2nc(C(F)(F)F)cc2N1` (single isomer, unassigned) [Example 56 Isomer 2, N-Benzyl-7-(3,4-dichlorophenyl)-5-methyl-2-(trifluoromethyl)-4,7-dihydropyrazolo[1,5-a]pyrimidine-6-sulfonamide], the Kv1.5% inhibition amounted to 37.5%.
For `CC1=C(S(=O)(=O)NC(C)(C)C)C(c2ccc(Cl)cc2)n2nc(C(F)(F)F)cc2N1` (single isomer, unassigned) [Example 57 Isomer 1, N-tert-Butyl-7-(4-chlorophenyl)-5-methyl-2-(trifluoromethyl)-4,7-dihydropyrazolo[1,5-a]pyrimidine-6-sulfonamide], the inhibition at 0.3 µM was 48.6%.
Turning to `CC1=C(S(=O)(=O)NC(C)(C)C)C(c2ccc(Cl)cc2)n2nc(C(F)(F)F)cc2N1` (single isomer, unassigned) [Example 57 Isomer 2, N-tert-Butyl-7-(4-chlorophenyl)-5-methyl-2-(trifluoromethyl)-4,7-dihydropyrazolo[1,5-a]pyrimidine-6-sulfonamide], the Kv1.5% inhibition is reported as 36.9%.
`CC1=C(S(=O)(=O)NC(C)(C)C)C(c2ccc(Cl)c(Cl)c2)n2nc(C(F)(F)F)cc2N1` (single isomer, unassigned) [Example 58 Isomer 1, N-tert-Butyl-7-(3,4-dichlorophenyl)-5-methyl-2-(trifluoromethyl)-4,7-dihydropyrazolo[1,5-a]pyrimidine-6-sulfonamide] registered an inhibition at 0.3 µM of 42.9%.
As for `CC1=C(S(=O)(=O)NC(C)(C)C)C(c2ccc(Cl)c(Cl)c2)n2nc(C(F)(F)F)cc2N1` (single isomer, unassigned) [Example 58 Isomer 2, N-tert-Butyl-7-(3,4-dichlorophenyl)-5-methyl-2-(trifluoromethyl)-4,7-dihydropyrazolo[1,5-a]pyrimidine-6-sulfonamide], the Kv1.5% inhibition is 37.7%.

Still in this assay, the particulars now being: read-out: Kv1.5 IC50.
In the case of `CC1=C(S(=O)(=O)c2ccccn2)C(c2ccc(Cl)cc2)n2nc(C(F)(F)F)cc2N1` (single isomer, unassigned) [Example 47 Isomer 1, 7-(4-Chlorophenyl)-5-methyl-6-(pyridin-2-ylsulfonyl)-2-(trifluoromethyl)-4,7-dihydropyrazolo[1,5-a]pyrimidine], the IC50 amounted to 0.197 µM.

By inhibition is commonly meant the drop in the measured response relative to a control, in per cent. The term IC50 denotes the concentration that inhibits the measured activity by half.
